Measurements from patent US11208412B2 (DAEGU-GYEONGBUK MEDICAL INNOVATION FOUNDATION, priority 2017, dated 2021).

Legend:
Assay in all cases: Kinase selectivity, DiscoverX scanMAX Kinase assay panel (% control)
Assay type in all cases: binding
[1] = molecular target: T1, kinases of the scanMAX Kinase assay panel (Homo sapiens, UniProt P54764); conditions: EPHA4; 1 uM
T1 construct: purchased DiscoverX Co. (contract measurement) scanMAX Kinase assay panel
How it was run: (§1)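 Percent of control computed as (compound − positive control)/(negative control − positive control) × 100, DMSO defining 100% and positive control 0%. Each panel kinase exposed to 1 uM compound; values under 35% taken to mean the compound acts on that kinase.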

[2] = molecular target: T2, kinases of the scanMAX Kinase assay panel (Homo sapiens, UniProt Q02750); conditions: MEK1; 1 uM
T2 construct: purchased DiscoverX Co. (contract measurement) scanMAX Kinase assay panel
How it was run: as §1

[3] = molecular target: T3, kinases of the scanMAX Kinase assay panel (Homo sapiens, UniProt Q13043); conditions: MST1; 1 uM
T3 construct: purchased DiscoverX Co. (contract measurement) scanMAX Kinase assay panel
T3 sequence (Q13043 1-487): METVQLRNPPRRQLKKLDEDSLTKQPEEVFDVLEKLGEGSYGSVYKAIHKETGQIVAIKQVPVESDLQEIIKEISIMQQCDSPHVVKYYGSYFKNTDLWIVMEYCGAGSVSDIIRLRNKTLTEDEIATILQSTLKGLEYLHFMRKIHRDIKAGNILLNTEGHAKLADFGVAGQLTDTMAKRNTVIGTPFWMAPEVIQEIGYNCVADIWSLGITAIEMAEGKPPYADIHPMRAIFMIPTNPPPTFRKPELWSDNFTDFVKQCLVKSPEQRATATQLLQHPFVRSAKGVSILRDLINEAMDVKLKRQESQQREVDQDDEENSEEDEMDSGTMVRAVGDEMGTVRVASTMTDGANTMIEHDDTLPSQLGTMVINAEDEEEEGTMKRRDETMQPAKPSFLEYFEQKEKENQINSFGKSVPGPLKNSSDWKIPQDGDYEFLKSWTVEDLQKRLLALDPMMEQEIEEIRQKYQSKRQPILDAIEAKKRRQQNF
How it was run: as §1

[4] = molecular target: T4, kinases of the scanMAX Kinase assay panel (Homo sapiens, UniProt Q13153); conditions: PAK1; 1 uM
T4 construct: purchased DiscoverX Co. (contract measurement) scanMAX Kinase assay panel
How it was run: as §1

[5] = molecular target: T5, kinases of the scanMAX Kinase assay panel (Homo sapiens, UniProt Q16659); conditions: ERK3; 1 uM
T5 construct: purchased DiscoverX Co. (contract measurement) scanMAX Kinase assay panel
How it was run: as §1

[6] = molecular target: T6, kinases of the scanMAX Kinase assay panel (Homo sapiens, UniProt Q9BRS2); conditions: kinase RIOK1; 1 uM in DMSO
T6 construct: purchased DiscoverX Co. (contract measurement) scanMAX Kinase assay panel
T6 sequence (Q9BRS2 1-568): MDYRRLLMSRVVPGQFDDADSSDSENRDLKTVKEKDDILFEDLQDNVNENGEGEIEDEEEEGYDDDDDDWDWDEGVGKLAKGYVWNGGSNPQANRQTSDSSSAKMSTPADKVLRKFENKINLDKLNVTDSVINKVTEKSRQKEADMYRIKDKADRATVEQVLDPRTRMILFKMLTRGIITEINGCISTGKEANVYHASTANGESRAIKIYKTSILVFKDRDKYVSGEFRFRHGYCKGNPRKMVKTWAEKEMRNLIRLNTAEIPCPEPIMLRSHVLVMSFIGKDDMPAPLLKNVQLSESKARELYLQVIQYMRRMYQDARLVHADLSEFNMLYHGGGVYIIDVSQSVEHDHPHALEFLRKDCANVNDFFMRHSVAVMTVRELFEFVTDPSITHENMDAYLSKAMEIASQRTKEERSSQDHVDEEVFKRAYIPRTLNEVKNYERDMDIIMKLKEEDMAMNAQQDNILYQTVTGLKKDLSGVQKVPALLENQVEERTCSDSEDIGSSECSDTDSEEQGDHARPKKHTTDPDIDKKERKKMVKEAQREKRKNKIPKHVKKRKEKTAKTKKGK
How it was run: as §1

[7] = molecular target: T7, kinases of the scanMAX Kinase assay panel (Homo sapiens, UniProt Q9BX84); conditions: kinase TRPM6; 1 uM in DMSO
T7 construct: purchased DiscoverX Co. (contract measurement) scanMAX Kinase assay panel
How it was run: as §1

[8] = molecular target: T8, kinases of the scanMAX Kinase assay panel (Homo sapiens, UniProt Q9HAZ1); conditions: CLK4; 1 uM
T8 construct: purchased DiscoverX Co. (contract measurement) scanMAX Kinase assay panel
How it was run: as §1

[9] = molecular target: T9, kinases of the scanMAX Kinase assay panel (Homo sapiens, UniProt Q9UBE8); conditions: NLK; 1 uM
T9 construct: purchased DiscoverX Co. (contract measurement) scanMAX Kinase assay panel
T9 sequence (Q9UBE8 1-527): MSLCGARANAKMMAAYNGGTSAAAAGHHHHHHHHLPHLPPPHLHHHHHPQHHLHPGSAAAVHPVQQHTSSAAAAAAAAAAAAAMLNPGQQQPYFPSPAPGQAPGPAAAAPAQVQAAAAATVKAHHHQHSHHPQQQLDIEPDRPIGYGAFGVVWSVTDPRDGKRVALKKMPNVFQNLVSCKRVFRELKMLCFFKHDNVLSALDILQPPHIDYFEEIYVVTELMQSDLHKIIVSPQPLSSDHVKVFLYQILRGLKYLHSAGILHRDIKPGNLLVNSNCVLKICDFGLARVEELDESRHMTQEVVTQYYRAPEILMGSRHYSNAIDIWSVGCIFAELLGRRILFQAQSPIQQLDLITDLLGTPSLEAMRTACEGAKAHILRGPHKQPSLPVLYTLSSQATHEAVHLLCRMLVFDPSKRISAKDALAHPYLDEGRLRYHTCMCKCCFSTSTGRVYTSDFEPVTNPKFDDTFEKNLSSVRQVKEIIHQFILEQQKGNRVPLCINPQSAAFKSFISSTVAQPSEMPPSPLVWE
How it was run: as §1

[10] = molecular target: T10, kinases of the scanMAX Kinase assay panel (Homo sapiens, UniProt Q9Y6R4); conditions: MAP3K4; 1 uM
T10 construct: purchased DiscoverX Co. (contract measurement) scanMAX Kinase assay panel
How it was run: as §1

T8 sequence (Q9HAZ1 whole entry): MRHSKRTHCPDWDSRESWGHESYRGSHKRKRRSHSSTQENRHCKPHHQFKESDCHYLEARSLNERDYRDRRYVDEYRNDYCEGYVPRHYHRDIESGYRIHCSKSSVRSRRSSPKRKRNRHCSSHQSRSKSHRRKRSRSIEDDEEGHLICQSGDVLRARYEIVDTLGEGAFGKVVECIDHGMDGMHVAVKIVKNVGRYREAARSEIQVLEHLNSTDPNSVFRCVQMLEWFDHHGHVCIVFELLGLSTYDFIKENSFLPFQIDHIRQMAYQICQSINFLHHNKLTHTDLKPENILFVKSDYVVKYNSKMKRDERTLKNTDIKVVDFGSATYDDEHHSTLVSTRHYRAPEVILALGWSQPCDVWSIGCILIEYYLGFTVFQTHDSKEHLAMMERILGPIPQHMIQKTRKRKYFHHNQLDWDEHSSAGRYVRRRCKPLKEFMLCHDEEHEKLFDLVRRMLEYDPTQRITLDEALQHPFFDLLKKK
T10 sequence (Q9Y6R4 whole entry): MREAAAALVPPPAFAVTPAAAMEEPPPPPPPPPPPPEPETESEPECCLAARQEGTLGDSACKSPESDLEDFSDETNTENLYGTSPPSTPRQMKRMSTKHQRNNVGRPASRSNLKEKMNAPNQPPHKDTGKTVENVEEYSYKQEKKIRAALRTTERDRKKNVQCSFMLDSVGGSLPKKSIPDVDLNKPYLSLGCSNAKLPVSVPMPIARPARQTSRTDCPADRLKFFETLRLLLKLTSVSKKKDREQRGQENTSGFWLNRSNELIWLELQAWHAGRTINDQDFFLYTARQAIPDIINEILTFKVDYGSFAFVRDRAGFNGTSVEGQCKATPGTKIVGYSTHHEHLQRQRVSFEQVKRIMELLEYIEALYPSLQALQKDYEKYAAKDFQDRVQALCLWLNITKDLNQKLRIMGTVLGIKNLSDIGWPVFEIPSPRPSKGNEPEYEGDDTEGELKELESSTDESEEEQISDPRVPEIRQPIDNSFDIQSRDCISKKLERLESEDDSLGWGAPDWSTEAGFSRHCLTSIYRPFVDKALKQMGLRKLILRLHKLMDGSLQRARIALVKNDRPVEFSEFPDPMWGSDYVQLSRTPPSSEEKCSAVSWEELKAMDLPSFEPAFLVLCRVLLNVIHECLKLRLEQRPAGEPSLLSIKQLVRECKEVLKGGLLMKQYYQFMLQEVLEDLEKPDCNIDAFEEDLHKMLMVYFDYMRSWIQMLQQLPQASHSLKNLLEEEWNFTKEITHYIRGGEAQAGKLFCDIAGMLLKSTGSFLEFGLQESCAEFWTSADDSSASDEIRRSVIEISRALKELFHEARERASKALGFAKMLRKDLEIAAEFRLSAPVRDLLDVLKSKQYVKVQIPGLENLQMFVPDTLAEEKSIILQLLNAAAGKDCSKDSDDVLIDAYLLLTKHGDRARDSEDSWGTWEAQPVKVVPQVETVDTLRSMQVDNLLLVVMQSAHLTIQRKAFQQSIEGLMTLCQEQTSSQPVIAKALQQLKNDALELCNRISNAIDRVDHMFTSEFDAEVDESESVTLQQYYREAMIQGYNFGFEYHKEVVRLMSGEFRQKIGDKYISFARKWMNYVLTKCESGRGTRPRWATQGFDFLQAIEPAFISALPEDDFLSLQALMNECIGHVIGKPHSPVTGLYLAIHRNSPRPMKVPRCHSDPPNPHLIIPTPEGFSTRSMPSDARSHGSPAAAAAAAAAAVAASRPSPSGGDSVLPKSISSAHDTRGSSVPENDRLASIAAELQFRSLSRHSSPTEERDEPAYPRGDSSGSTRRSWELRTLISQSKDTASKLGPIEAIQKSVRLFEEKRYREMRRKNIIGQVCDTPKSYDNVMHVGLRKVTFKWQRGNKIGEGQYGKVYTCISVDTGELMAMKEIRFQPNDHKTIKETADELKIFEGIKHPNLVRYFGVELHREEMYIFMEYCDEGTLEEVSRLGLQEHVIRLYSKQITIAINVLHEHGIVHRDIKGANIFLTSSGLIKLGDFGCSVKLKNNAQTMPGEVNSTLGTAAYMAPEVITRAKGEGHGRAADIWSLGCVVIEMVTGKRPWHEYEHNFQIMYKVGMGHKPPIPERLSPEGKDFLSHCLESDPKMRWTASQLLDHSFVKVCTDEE
T2 sequence (Q02750 whole entry): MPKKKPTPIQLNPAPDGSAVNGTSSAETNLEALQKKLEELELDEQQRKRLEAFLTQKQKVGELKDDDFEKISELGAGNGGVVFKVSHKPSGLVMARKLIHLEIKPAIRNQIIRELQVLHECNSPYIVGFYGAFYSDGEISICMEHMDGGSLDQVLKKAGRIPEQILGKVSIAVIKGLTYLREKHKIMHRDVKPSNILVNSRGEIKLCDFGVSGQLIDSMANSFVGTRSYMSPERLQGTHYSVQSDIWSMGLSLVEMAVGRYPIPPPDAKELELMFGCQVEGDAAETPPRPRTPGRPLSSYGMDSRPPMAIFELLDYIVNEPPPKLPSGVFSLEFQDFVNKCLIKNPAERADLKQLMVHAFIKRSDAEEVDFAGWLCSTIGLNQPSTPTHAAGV
T4 sequence (Q13153 whole entry): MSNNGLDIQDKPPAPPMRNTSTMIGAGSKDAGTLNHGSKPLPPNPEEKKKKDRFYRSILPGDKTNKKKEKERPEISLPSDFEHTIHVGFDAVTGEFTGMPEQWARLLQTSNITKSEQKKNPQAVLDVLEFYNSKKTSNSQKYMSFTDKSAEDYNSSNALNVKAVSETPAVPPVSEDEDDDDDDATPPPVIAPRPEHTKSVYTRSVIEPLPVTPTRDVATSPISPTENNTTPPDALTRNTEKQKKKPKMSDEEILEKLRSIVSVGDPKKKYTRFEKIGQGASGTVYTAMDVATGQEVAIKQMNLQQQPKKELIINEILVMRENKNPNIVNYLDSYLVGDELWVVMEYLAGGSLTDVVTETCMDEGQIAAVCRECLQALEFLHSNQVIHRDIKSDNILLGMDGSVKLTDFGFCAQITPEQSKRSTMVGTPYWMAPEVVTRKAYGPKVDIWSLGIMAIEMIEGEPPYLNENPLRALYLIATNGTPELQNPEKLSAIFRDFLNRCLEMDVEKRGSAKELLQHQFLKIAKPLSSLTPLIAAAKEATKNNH
T5 sequence (Q16659 whole entry): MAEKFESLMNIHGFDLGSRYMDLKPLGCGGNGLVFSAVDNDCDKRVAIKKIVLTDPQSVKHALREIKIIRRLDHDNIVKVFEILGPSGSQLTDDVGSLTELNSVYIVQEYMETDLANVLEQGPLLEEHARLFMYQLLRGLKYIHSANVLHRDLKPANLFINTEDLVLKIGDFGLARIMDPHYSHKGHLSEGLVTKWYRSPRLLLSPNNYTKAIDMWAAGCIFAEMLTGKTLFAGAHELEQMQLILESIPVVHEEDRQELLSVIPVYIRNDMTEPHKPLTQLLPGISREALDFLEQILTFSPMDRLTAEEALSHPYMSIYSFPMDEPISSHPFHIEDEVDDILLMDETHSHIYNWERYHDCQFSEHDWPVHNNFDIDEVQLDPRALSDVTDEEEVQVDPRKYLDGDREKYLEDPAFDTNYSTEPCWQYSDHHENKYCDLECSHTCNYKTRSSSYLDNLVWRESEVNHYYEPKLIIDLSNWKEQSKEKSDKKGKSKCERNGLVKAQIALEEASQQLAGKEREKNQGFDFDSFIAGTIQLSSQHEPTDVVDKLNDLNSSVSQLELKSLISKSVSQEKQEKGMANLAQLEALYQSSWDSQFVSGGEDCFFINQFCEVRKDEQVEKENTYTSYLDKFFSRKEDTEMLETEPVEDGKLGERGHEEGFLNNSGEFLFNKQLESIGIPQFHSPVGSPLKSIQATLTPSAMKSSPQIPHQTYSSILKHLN
T1 sequence (P54764 20-986): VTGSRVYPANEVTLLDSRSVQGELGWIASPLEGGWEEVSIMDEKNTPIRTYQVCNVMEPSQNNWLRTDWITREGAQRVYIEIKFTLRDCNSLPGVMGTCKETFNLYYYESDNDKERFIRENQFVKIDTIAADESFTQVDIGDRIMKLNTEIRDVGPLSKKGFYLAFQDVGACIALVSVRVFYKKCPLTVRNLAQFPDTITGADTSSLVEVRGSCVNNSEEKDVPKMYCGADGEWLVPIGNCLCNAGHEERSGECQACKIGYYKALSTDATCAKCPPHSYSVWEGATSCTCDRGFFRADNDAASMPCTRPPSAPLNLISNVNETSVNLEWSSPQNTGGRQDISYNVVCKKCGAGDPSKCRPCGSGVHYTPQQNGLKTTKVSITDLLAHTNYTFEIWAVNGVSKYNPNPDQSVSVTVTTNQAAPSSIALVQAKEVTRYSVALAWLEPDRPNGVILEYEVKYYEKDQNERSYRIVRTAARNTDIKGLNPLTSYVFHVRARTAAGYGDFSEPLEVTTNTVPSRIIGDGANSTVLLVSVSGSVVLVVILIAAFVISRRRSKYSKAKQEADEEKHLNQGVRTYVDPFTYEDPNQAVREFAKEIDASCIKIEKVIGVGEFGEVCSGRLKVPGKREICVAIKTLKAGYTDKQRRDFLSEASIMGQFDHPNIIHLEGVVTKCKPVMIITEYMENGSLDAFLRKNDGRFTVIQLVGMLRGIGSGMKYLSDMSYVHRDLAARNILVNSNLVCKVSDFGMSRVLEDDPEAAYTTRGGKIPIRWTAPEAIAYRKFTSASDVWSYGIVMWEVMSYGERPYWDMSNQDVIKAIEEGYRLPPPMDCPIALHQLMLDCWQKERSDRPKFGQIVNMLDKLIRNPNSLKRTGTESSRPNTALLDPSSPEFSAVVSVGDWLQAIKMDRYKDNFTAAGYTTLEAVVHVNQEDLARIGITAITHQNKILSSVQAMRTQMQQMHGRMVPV

| SMILES | remaining binding at 1 µM [1] [%] | remaining binding at 1 µM [2] [%] | remaining binding at 1 µM [3] [%] | remaining binding at 1 µM [4] [%] | remaining binding at 1 µM [5] [%] | remaining binding at 1 µM [6] [%] | remaining binding at 1 µM [7] [%] | remaining binding at 1 µM [8] [%] | remaining binding at 1 µM [9] [%] | remaining binding at 1 µM [10] [%] |
| --- | --- | --- | --- | --- | --- | --- | --- | --- | --- | --- |
| CCNc1nc(Nc2ccc(C(=O)N3CCC(N4CCOCC4)CC3)cc2OC)nc2[nH]cc(C(F)(F)F)c12 [Example 104, (4-((4-(ethylamino)-5-(trifluoromethyl)-7H-pyrrolo[2,3-d]pyrimidine-2-yl)amino)-3-methoxyphenyl)(4-morpholinopiperidine-1-yl)methanone] | 100 | 86 | 100 | 71 | 95 | 100 | 98 | 4.1 | 69 | 97 |
| CC1(Nc2nc(Nc3cnn([C@H]4CCN(C5COC5)C[C@@H]4F)c3Cl)nc3[nH]cc(C#N)c23)CC1 [Example 52, 2-((5-chloro-1-((3S,4S)-3-fluoro-1-(oxetane-3-yl)piperidine-4-yl)-1H-pyrazole-4-yl)amino)((1-methylcyclopropyl)amino)-7H-pyrrolo[2,3-d]pyrimidine-5-carbonitrile] | 75 | 0.1 | 17 | 75 | 54 | 0.7 | 93 | 1.4 | 75 | 77 |
| CNc1nc(Nc2ccc(C(=O)N3CCOCC3)cc2OC)nc2[nH]cc(C#N)c12 [Example 1, 2-((2-methoxy-4-(morpholine-4-carbonyl)phenyl)amino)-4-(methylamino)-7H-pyrrolo[2,3-d]pyrimidine-5-carbonitrile] | 93 | 89 | 93 | 100 | 89 | 100 | 88 | 3.4 | 98 | 100 |
